Results on four compounds are retold here after patent US20110190122A1, “Triazole and Imidazole Compounds, Use Thereof and Agents Containing Them” (BASF SE, priority 2008, published 2011).

Each structure is given as a SMILES string.

Assay [1] relates to Phakopsora pachyrhizi. The assay can be described thus: Curative activity against soybean rust caused by Phakopsora pachyrhizi (Example G1, sprayed two days after incubation). The class given is in vivo. The following applies: soybean seedlings, 300 ppm aqueous active compound preparation, sprayed to runoff two days after 24 h incubation, assessed after a further 10 days; untreated plants 90% infected. On the procedure: (§1) The active compounds were prepared separately or together as a stock solution with 25 mg of active compound, which was made up to 10 ml with a mixture of acetone and/or DMSO and the emulsifier Uniperol® EL (wetting agent with emulsifying and dispersant action based on ethoxylated alkylphenols) in the volume ratio solvent/emulsifier of 99 to 1. Subsequently, it was made up to 100 ml with water. This stock solution was diluted with the described solvent/emulsifier/water mixture to the active compound concentration indicated below. Alternatively to this, the active compounds were used as a commercially available ready-to-use solution and diluted with water to the active compound concentration indicated.
Leaves of soybean seedlings grown in pots were inoculated with a spore suspension of soybean rust (Phakopsora pachyrhizi). The pots were then placed in a chamber of high atmospheric humidity (90 to 95%) and 23 to 27° C. for 24 hours. During this time, the spores germinated and the germ tubes penetrated into the leaf tissue. The infected plants were then cultivated further in a greenhouse at temperatures between 23 and 27° C. and 60 to 80% relative atmospheric humidity. After two days, the plants were sprayed to runoff point with the active compound solution described above at the active compound concentration indicated below. After the spray coating had dried on, the test plants were cultivated in a greenhouse at temperatures between 23 and 27° C. and 60 to 80% relative atmospheric humidity for a further 10 days. The extent of the rust fungus development on the leaves was then determined visually in % infections.

The subject of assay [2] is Phakopsora pachyrhizi. The experiment in a line: Curative activity against soybean rust caused by Phakopsora pachyrhizi (Example G2, sprayed directly after 24 h incubation). The class given is in vivo. The following applies: soybean seedlings, 300 ppm aqueous active compound preparation, sprayed to runoff after 24 h incubation, assessed after a further 14 days; untreated plants 90% infected. The procedure:
as §1
Leaves of soybean seedlings grown in pots were inoculated with a spore suspension of soybean rust (Phakopsora pachyrhizi). The pots were then placed in a chamber of high atmospheric humidity (90 to 95%) and 23 to 27° C. for 24 hours. During this time, the spores germinated and the germ tubes penetrated into the leaf tissue. The infected plants were then sprayed to runoff point with the active compound solution described above at the active compound concentration indicated below. […] The extent of the rust fungus development on the leaves was then determined visually in % infections.

As to `CC(C)[C@H](O)[C@@H](CCCCOc1ccc(Cl)cc1Cl)n1nc[nH]c1=S` (racemic) [I.A3, (RS,SR)-2-[5-(2,4-dichlorophenoxy)-1-(1-hydroxy-2-methylpropyl)pentyl]-2,4-dihydro[1,2,4]triazole-3-thione], in the assay on Phakopsora pachyrhizi [1], the “infection (extent of the rust fungus development on the leaves, determined visually)” value (“infection” for short) was found to be 0%. Regarding `CC(C)[C@H](O)[C@@H](CCCCOc1cccc(F)c1F)n1nc[nH]c1=S` (racemic) [I.A1, (RS,SR)-2-[5-(2,3-difluorophenoxy)-1-(1-hydroxy-2-methylpropyl)pentyl]-2,4-dihydro[1,2,4]triazole-3-thione], the “infection” value in the assay on Phakopsora pachyrhizi [2] is 0%. Consider `CC(C)[C@H](O)[C@@H](CCCCOc1cc(F)ccc1F)n1nc[nH]c1=S` (racemic) [I.A4, (RS,SR)-2-[5-(2,5-difluorophenoxy)-1-(1-hydroxy-2-methylpropyl)pentyl]-2,4-dihydro[1,2,4]triazole-3-thione], for which, in the assay on Phakopsora pachyrhizi [1], the “infection” value turned out to be 0%. The same measure, in the same setting: with `CC(C)[C@H](O)[C@@H](CCCCOc1cccc(Cl)c1Cl)n1nc[nH]c1=S` (racemic) [I.A2, (RS,SR)-2-[5-(2,3-dichlorophenoxy)-1-(1-hydroxy-2-methylpropyl)pentyl]-2,4-dihydro[1,2,4]triazole-3-thione] the figure was 0%.
